Measurements reported in patent US11702404B2, “GLP-1R modulating compounds” (priority 2019, dated 2023).
Like-named read-outs stand apart in the source and are kept apart here.

Experiments:
GLP-1R = GLP-1R (Homo sapiens, UniProt P43220); assay: GLP-1R activation: cAMP increase in CHO cells stably expressing GLP-1R; format: cell-based
[1] = Microsomal stability, human liver microsomes (predicted hepatic clearance); conditions: predicted from in vitro microsomal stability data
[2] = cAMP increase, CHO cells stably expressing GLP-1R, 10 point dose response, 30 minutes incubation, read-out: EC50

GLP-1R, sequence (P43220 24-463): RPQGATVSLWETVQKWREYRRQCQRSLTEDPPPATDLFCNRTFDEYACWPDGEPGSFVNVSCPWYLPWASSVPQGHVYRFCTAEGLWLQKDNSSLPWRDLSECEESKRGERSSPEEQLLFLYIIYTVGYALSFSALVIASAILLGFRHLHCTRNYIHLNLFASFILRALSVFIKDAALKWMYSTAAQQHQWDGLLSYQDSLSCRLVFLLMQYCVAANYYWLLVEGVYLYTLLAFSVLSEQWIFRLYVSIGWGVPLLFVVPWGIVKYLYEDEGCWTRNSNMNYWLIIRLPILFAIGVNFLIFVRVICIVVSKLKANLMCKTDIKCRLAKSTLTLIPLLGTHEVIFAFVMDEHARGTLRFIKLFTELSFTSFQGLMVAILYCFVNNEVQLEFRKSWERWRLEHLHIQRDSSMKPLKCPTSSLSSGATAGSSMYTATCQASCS

| Structure (SMILES) | EC50 (GLP-1R; [2]) | Predicted Hepatic Clearance (Pred. Cl.) [1] | EC50 (GLP-1R; read-out: EC50) | EC50 (GLP-1R; EC50 (nM)) |
| --- | --- | --- | --- | --- |
| COCCn1c(Cc2cc(F)c(-c3cccc(OCc4cccnc4OC(F)F)n3)cc2F)nc2ccc(C(=O)O)cc21 [Example 542, 2-(4-(6-((2-(difluoromethoxy)pyridin-3-yl)methoxy)pyridin-2-yl)-2,5-difluorobenzyl)-1-(2-methoxyethyl)-1H-benzo[d]imidazole-6-carboxylic acid] | 8.6 nM | 20 mL/min/kg | – | – |
| N#Cc1ccc(COc2cccc(-c3cc(F)c(Cc4nc5ccc(C(=O)O)cc5n4CC4(O)CC4)cc3F)n2)c(F)c1 [Example 733] | 2.47 nM | 3.83 mL/min/kg | – | – |
| COCCn1c(Cc2ccc(-c3cccc(OCc4ccccc4F)n3)cc2F)nc2ccc(C(=O)O)cc21 [Example 514, 2-(2-fluoro-4-(6-((2-fluorobenzyl)oxy)pyridin-2-yl)benzyl)-1-(2-methoxyethyl)-1H-benzo[d]imidazole-6-carboxylic acid] | 60.8 nM | 15.2 mL/min/kg | – | – |
| COCCn1c(Cc2cc(F)c(-c3cccc(OCc4ccc(C)nc4)n3)cc2F)nc2ccc(C(=O)O)cc21 [Example 811] | 3.57 nM | 10 mL/min/kg | – | – |
| COCC1(Cn2c(Cc3ccc(-c4cccc(OCc5ccc(C#N)cc5F)n4)cc3F)nc3ccc(C(=O)O)cc32)CC1 [Example 380, 2-(4-(6-((4-cyano-2-fluorobenzyl)oxy)pyridin-2-yl)-2-fluorobenzyl)-1-((1-(methoxymethyl)cyclopropyl)methyl)-1H-benzo[d]imidazole-6-carboxylic acid] | 7.72 nM | <1.83 mL/min/kg | – | – |
| CC1(C)CC(Cn2c(Cc3ccc(-c4cccc(OCc5ccc(C#N)cc5F)n4)cc3F)nc3ccc(C(=O)O)cc32)O1 (centres unmarked) [Example 263, 2-(4-(6-((4-cyano-2-fluorobenzyl)oxy)pyridin-2-yl)-2-fluorobenzyl)-1-((4,4-dimethyloxetan-2-yl)methyl)-1H-benzo[d]imidazole-6-carboxylic acid] | 91.7 nM | 7 mL/min/kg | – | – |
| COCCn1c(Cc2ccc(-c3ccc(C#N)c(OCc4ccc(C#N)cc4F)n3)cc2F)nc2ccc(C(=O)O)cc21 [Example 86, 2-(4-(5-cyano-6-((4-cyano-2-fluorobenzyl)oxy)pyridin-2-yl)-2-fluorobenzyl)-1-(2-methoxyethyl)-1H-benzo[d]imidazole-6-carboxylic acid] | 274 nM | <1.83 mL/min/kg | – | – |
| CC(=O)N1C[C@H](F)C[C@@H]1Cn1c(Cc2cc(F)c(-c3cccc(OCc4ccc(C#N)cc4F)n3)cc2F)nc2ccc(C(=O)O)cc21 [Example 691] | – | 4.17 mL/min/kg | 0.06 nM | – |
| O=C(O)c1ccc2nc(Cc3ccc(-c4ccnc(OCc5ccc(C(F)F)cc5F)n4)c(F)c3)n(C[C@@H]3CCO3)c2c1 [Example 790] | 0.44 nM | 3 mL/min/kg | – | – |
| CC(=O)N1CCC[C@H]1Cn1c(Cc2ccc(-c3cccc(OCc4ccc(C#N)cc4F)n3)cc2F)nc2ccc(C(=O)O)cc21 [Example 453, (S)-1-((1-acetylpyrrolidin-2-yl)methyl)-2-(4-(6-((4-cyano-2-fluorobenzyl)oxy)pyridin-2-yl)-2-fluorobenzyl)-1H-benzo[d]imidazole-6-carboxylic acid] | – | 3.83 mL/min/kg | 40.3 nM | – |
| COC(Cn1c(Cc2ccc(-c3cccc(OCc4ccc(C#N)cc4F)n3)cc2F)nc2ccc(C(=O)O)cc21)C(=O)O (single isomer, unassigned) [Example 332, 1-(2-carboxy-2-methoxyethyl)-2-(4-(6-((4-cyano-2-fluorobenzyl)oxy)pyridin-2-yl)-2-fluorobenzyl)-1H-benzo[d]imidazole-6-carboxylic acid] | 120 nM | <1.83 mL/min/kg | – | – |
| Cc1nc(Cn2c(Cc3cc(F)c(-c4cccc(OCc5ccc(C#N)cc5F)n4)cc3F)nc3ccc(C(=O)O)cc32)oc1C [Example 615] | 1420 nM | 2.33 mL/min/kg | – | – |
| COCCn1c(Cc2ccc(-c3cccc(OCc4ccncc4OC)n3)c(F)c2)nc2ccc(C(=O)O)cc21 [Example 96, 2-(3-fluoro-4-(6-((3-methoxypyridin-4-yl)methoxy)pyridin-2-yl)benzyl)-1-(2-methoxyethyl)-1H-benzo[d]imidazole-6-carboxylic acid] | 30.9 nM | 17.8 mL/min/kg | – | – |
| N#Cc1cc(F)c(COc2cccc(-c3cc(F)c(Cc4nc5c(F)cc(C(=O)O)cc5n4Cc4ncco4)cc3F)n2)cc1F [Example 784] | 0.55 nM | 1.83 mL/min/kg | – | – |
| N#Cc1ccc(COc2cccc(-c3ccc(Cc4nc5ccc(C(=O)O)cc5n4C[C@H]4CCCO4)c(F)c3)n2)c(F)c1 [Example 198, (R)-2-(4-(6-((4-cyano-2-fluorobenzyl)oxy)pyridin-2-yl)-2-fluorobenzyl)-1-((tetrahydrofuran-2-yl)methyl)-1H-benzo[d]imidazole-carboxylic acid] | 8.69 nM | 5.17 mL/min/kg | – | – |
| COCCn1c(Cn2ccc(-c3cccc(OCc4ccc(C#N)cc4F)n3)cc2=O)nc2ccc(C(=O)O)cc21 [Example 61, 2-((6-((4-cyano-2-fluorobenzyl)oxy)-2′-oxo-[2,4′-bipyridin]-1′(2′H)-yl)methyl)-1-(2-methoxyethyl)-1H-benzo[d]imidazole-6-carboxylic acid] | 18 nM | <1.83 mL/min/kg | – | – |
| COCCn1c(Cc2ncc(-c3cccc(OCc4ccc(C#N)cc4F)n3)cc2F)nc2ccc(C(=O)O)cc21 [Example 60, 2-{[5-[6-[(4-cyano-2-fluoro-phenyl)methoxy]-2-pyridyl]-3-fluoro-2-pyridyl]methyl}-3-(2-methoxyethyl)benzimidazole-5-carboxylic acid] | 30 nM | <1.83 mL/min/kg | – | – |
| COCCn1c(Cc2c(F)cc(-c3cccc(OCc4ccc(Cl)nc4)n3)cc2F)nc2ccc(C(=O)O)cc21 [Example 654] | 24.9 nM | 3.5 mL/min/kg | – | – |
| COCCn1c(Cc2ccc(-c3cccc(OCC(=O)c4ccc(Cl)cc4)n3)cc2F)nc2ccc(C(=O)O)cc21 [Example 212, 2-(4-(6-(2-(4-Chlorophenyl)-2-oxoethoxy)pyridin-2-yl)-2-fluorobenzyl)-1-(2-methoxyethyl)-1H-benzo[d]imidazole-6-carboxylic acid] | 80.1 nM | <1.83 mL/min/kg | – | – |
| O=C(O)c1ccc2nc(Cc3cc(F)c(-c4ccnc(OCc5ccc(Cl)cc5F)n4)cc3F)n(CC3(CF)CC3)c2c1 [Example 433, 2-(4-(2-((4-chloro-2-fluorobenzyl)oxy)pyrimidin-4-yl)-2,5-difluorobenzyl)-1-((1-(fluoromethyl)cyclopropyl)methyl)-1H-benzo[d]imidazole-6-carboxylic acid] | 0.64 nM | <1.83 mL/min/kg | – | – |
| N#Cc1ccc(COc2nccc(-c3cc(F)c(Cc4nc5ccc(C(=O)O)nc5n4CC4(CF)CC4)cc3F)n2)c(F)c1 [Example 106, 2-(4-(2-((4-cyano-2-fluorobenzyl)oxy)pyrimidin-4-yl)-2,5-difluorobenzyl)-3-((1-(fluoromethyl)cyclopropyl)methyl)-3H-imidazo[4,5-b]pyridine-5-carboxylic acid] | 1.5 nM | <1.83 mL/min/kg | – | – |
| N#CCC1(Cn2c(Cc3ccc(-c4cccc(OCc5ccc(C#N)cc5F)n4)cc3F)nc3ccc(C(=O)NS(=O)(=O)C4CC4)cc32)CC1 [Example 55, 2-(4-(6-((4-cyano-2-fluorobenzyl)oxy)pyridin-2-yl)-2-fluorobenzyl)-1-((1-(cyanomethyl)cyclopropyl)methyl)-N-(cyclopropylsulfonyl)-1H-benzo[d]imidazole-6-carboxamide] | 3.4 nM | 4.33 mL/min/kg | – | – |
| COCCn1c(Cc2ccc(-c3ccc(Cl)c(OCc4ccc(C#N)cc4F)n3)cc2F)nc2ccc(C(=O)O)cc21 [Example 122, 2-(4-(5-chloro-6-((4-cyano-2-fluorobenzyl)oxy)pyridin-2-yl)-2-fluorobenzyl)-1-(2-methoxyethyl)-1H-benzo[d]imidazole-6-carboxylic acid] | 30.6 nM | <1.83 mL/min/kg | – | – |
| COCCn1c(Cc2ccc(-c3cccc(OCc4cccnc4OC)n3)cc2F)nc2ccc(C(=O)O)cc21 [Example 511, 2-(2-fluoro-4-(6-((2-methoxypyridin-3-yl)methoxy)pyridin-2-yl)benzyl)-1-(2-methoxyethyl)-1H-benzo[d]imidazole-6-carboxylic acid] | 29.7 nM | 18.7 mL/min/kg | – | – |
| N#Cc1ccc(COc2nc(-c3cc(F)c(Cc4nc5c(F)cc(C(=O)O)cc5n4C[C@@H]4CCO4)cc3F)ccc2F)c(F)c1 [Example 768] | 0.04 nM | 2.75 mL/min/kg | – | – |
| COCCn1c(Cc2cc(F)c(-c3nccc(OCc4ccc(C#N)cc4F)n3)cc2F)nc2ccc(C(=O)O)cc21 [Example 159, 2-(4-(4-((4-cyano-2-fluorobenzyl)oxy)pyrimidin-2-yl)-2,5-difluorobenzyl)-1-(2-methoxyethyl)-1H-benzo[d]imidazole-6-carboxylic acid] | – | 6 mL/min/kg | – | 7.78 nM |
| N#Cc1ccc(COc2ccnc(-c3cc(F)c(Cc4nc5ccc(C(=O)O)cc5n4C[C@@H]4CCO4)cc3F)n2)c(F)c1 [Example 451, (S)-2-(4-(4-((4-cyano-2-fluorobenzyl)oxy)pyrimidin-2-yl)-2,5-difluorobenzyl)-1-(oxetan-2-ylmethyl)-1H-benzo[d]imidazole-6-carboxylic acid] | 0.16 nM | 4.83 mL/min/kg | – | – |
| COC(=O)N1CC(Cn2c(Cc3cc(F)c(-c4cccc(OCc5ccc(C#N)cc5F)n4)cc3F)nc3ccc(C(=O)O)cc32)(OC)C1 [Example 824] | 197 nM | 7.67 mL/min/kg | – | – |
